Data on 5 compounds can be found in patent publication US8772330B2, “Inhibitor(s) of transporters or uptake of monoaminergic neurotransmitters” (State of Oregon acting by and through the State Board of …, priority 2009, dated 2014).

Molecules are shown by their SMILES. Counter-ions that a name gives are not always drawn.

In experiment [1] the target is T1, serotonin (5-HT) transporter (Homo sapiens, UniProt P31645). Conditions: for Slope, Serotonin (5-HT) transporter: Table 1, binding curve slope.
In experiment [2] the target is T2, dopamine (DA) transporter (Homo sapiens, UniProt Q01959). Particulars: for Slope, Dopamine (DA) transporter: Table 1, binding curve slope.
The target in experiment [3] is T3, norepinephrine (NE) transporter (Homo sapiens, UniProt P23975).
Target sequence in this assay (P23975 whole entry): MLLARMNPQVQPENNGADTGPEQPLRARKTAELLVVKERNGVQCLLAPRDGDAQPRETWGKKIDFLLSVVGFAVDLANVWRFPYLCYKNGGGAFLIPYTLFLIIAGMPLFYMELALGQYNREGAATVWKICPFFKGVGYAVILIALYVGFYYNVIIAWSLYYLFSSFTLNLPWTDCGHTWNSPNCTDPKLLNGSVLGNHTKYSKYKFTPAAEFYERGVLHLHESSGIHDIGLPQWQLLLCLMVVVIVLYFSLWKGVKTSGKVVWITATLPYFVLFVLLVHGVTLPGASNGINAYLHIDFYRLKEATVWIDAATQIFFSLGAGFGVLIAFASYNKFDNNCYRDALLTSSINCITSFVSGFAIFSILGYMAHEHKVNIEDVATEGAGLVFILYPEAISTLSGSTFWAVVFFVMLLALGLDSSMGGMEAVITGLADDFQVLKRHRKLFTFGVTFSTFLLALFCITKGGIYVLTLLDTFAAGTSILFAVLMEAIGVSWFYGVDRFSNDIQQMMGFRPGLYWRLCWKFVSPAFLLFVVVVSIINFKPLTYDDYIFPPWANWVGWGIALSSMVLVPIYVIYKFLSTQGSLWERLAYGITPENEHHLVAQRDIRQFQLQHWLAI
The target of experiment [4] is T3, norepinephrine (NE) transporter. Conditions: Table 2; data derived from literature; read-out: Affinity (Ki), Norepinephrine (NE) transporter; cited from earlier work.
Target sequence in this assay (P23975 whole entry, species assumed): as the sequence (P23975 whole entry) above
Experiment [5] addresses T2, dopamine (DA) transporter. Particulars: Table 2; data derived from literature; read-out: Affinity (Ki), Dopamine (DA) transporter; cited from earlier work.
In experiment [6] the target is T1, serotonin (5-HT) transporter. Conditions: Table 2; data derived from literature; read-out: Affinity (Ki), 5-Hydroxy Tryptamine (5-HT) transporter; cited from earlier work.

T1 sequence (P31645 whole entry): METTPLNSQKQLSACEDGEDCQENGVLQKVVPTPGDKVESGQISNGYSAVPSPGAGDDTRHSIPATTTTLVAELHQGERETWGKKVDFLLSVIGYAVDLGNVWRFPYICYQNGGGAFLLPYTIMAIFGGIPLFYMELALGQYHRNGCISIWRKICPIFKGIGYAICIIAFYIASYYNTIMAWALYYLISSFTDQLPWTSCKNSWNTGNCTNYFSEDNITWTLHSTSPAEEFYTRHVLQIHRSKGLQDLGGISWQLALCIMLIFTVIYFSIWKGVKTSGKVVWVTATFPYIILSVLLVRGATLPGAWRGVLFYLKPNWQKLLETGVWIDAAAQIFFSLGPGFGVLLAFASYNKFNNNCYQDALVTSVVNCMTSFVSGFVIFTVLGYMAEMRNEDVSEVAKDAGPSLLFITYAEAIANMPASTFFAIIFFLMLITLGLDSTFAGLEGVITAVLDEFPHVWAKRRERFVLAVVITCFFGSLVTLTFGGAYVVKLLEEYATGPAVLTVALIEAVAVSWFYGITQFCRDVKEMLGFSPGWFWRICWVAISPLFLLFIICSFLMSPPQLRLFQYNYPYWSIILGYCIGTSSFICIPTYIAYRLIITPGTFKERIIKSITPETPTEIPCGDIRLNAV
T2 sequence (Q01959 whole entry): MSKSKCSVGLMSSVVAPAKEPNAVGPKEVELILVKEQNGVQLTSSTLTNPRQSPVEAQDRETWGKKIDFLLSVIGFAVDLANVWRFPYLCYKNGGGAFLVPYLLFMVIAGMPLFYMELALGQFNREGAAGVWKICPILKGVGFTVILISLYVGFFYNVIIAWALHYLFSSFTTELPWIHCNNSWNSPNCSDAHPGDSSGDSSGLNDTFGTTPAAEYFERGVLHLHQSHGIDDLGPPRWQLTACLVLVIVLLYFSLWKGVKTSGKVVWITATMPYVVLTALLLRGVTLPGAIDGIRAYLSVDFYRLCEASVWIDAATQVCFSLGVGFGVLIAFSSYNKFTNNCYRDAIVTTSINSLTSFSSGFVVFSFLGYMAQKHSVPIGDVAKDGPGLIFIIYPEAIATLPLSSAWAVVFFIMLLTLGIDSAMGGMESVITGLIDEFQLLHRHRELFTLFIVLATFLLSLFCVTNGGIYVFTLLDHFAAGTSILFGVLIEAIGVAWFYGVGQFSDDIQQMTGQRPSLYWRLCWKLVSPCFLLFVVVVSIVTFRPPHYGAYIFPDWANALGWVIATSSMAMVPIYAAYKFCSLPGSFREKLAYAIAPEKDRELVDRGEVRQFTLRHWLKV

With `CNC[C@@H]1C[C@]1(Oc1cccc2ccccc12)c1cccs1` (racemic) [DWJW0002, (E)-N-Methyl-[2-(naphthalen-1-yloxy)-2-(thiophen-2-yl)cyclopropyl)methanamine Hydrochloride], the “Slope, Serotonin (5-HT) transporter” value in experiment [1] is recorded as −0.92. For the same compound, the “times more potent than DWJW0003 as inhibitor of serotonin transporter” value in experiment [1] (with reference to Table 1) is “about 3 times”. Further, in experiment [2], the “Slope, Dopamine (DA) transporter” value is reported as −1.11.

On to `CNCC1CC1(Oc1cccc2ccccc12)c1cccs1` (racemic) [DWJW0003, (Z)-N-Methyl-[2-(naphthalen-1-yloxy)-2-(thiophen-2-yl)cyclopropyl]methanamine Hydrochloride], for which the “Slope, Norepinephrine (NE) transporter” value in experiment [3] (Table 1, binding curve slope) is reported as −0.84. For the same compound, the “times more potent than DWJW0002 as inhibitor of norepinephrine transporter” value in experiment [3] (with reference to Table 1) is given as “about 9 times”. In experiment [1], the “Slope, Serotonin (5-HT) transporter” value was −1.19. Besides, in experiment [2], the “Slope, Dopamine (DA) transporter” value is −1. For the same compound, in experiment [2] (with reference to Table 1), the “times more potent than DWJW0002 as inhibitor of dopamine transporter” value is given as “about 2 times”.

As to `Fc1ccc(C(OCCN2CCN(CCCc3ccccc3)CC2)c2ccc(F)cc2)cc1` [GBR12909, reference compound], the “Slope, Dopamine (DA) transporter” value in experiment [2] was −1.25. Further, in experiment [2] (with reference to Table 1), the “times more potent than DWJW0002 as inhibitor of dopamine transporter” value was determined as 16 times and the “times more potent than DWJW0003 as inhibitor of dopamine transporter” value was determined as 8 times.

With `CN(C)CCCN1c2ccccc2CCc2ccccc21` [Imipramine, reference compound], in experiment [1], the “Slope, Serotonin (5-HT) transporter” value is on record as −1.06.

As usually defined, the Ki is the equilibrium dissociation constant of an inhibitor or competing ligand from its target. Consider `C#Cc1ccc([C@@H]2CN3CCC[C@@H]3c3ccccc32)cc1` [JNJ-7925476], for which the Ki in experiment [4] is 16.6 ± 7 nM; in experiment [5] it was 5.2 ± 1 nM; in experiment [6], 0.9 ± 0.1 nM.
